± gives the standard deviation of the averaged measurements.
What was measured:
[1] = target: MTOR (UniProt P42345); experiment: pIC50, kinobeads binding competition; conditions: cell material: Jurkat cells
In short: (§1)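 To obtain pIC50, fold changes versus vehicle were fitted to logistic dose-response curves (R drc package) across biological duplicates. Protein binding to Kinobeads was quantified by TMT10 LC-MS/MS of digested bead-bound proteins. Treatments used nine concentrations with a top of 30 μM, applied to live Jurkat cells in 1:4 steps for 60 min at 37 °C before lysis, or to Jurkat lysate or a 1:1:1:1 HEK293/K-562/HepG2/placenta lysate mix in 1:5 steps for 60 min at 4 °C.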

[2] = target: PAK6 (UniProt Q9NQU5); experiment: pIC50, kinobeads binding competition; conditions: cell material: Jurkat lysate
PAK6, sequence (Q9NQU5 whole entry, looked up): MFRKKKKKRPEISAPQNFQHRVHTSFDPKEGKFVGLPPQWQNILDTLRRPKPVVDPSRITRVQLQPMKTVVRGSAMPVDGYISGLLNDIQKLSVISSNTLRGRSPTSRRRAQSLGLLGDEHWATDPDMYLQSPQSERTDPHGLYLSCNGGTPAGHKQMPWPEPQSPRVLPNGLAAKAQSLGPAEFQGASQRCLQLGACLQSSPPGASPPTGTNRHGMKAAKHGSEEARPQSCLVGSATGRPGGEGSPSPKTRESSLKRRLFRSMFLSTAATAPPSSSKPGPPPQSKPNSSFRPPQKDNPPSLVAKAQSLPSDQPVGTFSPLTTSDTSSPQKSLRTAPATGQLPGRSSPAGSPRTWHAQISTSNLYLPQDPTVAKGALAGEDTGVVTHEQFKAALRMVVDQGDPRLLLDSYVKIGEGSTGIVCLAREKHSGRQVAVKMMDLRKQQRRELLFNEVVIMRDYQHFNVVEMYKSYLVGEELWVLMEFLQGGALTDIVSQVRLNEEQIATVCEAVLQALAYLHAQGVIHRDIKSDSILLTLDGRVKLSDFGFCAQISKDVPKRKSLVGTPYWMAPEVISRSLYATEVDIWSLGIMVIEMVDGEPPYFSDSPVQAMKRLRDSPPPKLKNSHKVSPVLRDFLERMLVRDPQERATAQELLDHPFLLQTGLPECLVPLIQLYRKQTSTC
In short: as §1

[3] = target: PASK (UniProt Q96RG2); experiment: pIC50, kinobeads binding competition; conditions: cell material: Jurkat cells
In short: as §1

[4] = target: RIPK1 (UniProt Q13546); experiment: pIC50, kinobeads binding competition; conditions: cell material: Jurkat cells
RIPK1, sequence (Q13546 whole entry): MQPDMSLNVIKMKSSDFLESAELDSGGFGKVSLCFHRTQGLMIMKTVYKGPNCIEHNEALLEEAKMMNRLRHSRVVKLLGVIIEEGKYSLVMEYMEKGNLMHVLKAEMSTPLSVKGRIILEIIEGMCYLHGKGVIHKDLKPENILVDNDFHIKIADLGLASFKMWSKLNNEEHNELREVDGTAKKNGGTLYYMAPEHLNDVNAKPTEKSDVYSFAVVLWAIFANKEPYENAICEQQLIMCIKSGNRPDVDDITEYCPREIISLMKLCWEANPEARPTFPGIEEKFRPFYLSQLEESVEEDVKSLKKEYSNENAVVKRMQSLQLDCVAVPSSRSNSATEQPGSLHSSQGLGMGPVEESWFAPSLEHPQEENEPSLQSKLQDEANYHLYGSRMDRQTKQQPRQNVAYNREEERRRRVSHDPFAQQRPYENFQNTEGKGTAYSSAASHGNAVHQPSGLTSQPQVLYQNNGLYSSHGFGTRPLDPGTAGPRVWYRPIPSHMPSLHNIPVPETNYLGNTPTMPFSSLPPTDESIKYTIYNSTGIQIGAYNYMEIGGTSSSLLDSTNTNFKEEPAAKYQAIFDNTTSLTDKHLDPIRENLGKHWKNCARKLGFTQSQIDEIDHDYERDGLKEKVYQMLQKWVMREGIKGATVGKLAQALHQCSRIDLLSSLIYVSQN
In short: as §1

[5] = target: TYRO3 (UniProt Q06418); experiment: pIC50, kinobeads binding competition; conditions: cell material: Jurkat lysate
TYRO3, sequence (Q06418 whole entry): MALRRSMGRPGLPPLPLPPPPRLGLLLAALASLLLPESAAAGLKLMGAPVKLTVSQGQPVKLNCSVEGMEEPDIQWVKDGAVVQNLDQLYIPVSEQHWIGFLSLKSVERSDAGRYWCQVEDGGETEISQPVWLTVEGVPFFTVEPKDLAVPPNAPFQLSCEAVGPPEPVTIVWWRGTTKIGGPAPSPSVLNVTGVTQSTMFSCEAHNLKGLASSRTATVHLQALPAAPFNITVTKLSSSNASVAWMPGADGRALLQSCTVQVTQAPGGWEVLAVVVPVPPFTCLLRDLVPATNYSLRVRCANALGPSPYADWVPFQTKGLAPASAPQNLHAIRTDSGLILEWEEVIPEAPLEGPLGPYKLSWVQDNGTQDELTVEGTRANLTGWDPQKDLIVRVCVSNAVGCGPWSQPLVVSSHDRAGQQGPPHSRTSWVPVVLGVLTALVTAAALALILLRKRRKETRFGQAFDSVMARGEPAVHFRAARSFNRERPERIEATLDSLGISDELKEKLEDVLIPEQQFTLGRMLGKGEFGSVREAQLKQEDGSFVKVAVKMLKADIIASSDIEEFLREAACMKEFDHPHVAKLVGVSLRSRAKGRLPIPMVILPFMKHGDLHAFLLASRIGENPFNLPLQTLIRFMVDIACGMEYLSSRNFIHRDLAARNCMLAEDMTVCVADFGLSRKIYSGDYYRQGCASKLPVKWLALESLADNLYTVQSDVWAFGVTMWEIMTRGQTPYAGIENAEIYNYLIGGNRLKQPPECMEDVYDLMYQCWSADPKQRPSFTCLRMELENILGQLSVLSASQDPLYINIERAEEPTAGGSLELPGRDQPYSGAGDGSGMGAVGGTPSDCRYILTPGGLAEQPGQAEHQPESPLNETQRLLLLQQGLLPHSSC
In short: as §1

[6] = target: UniProt Q6DT37; experiment: pIC50, kinobeads binding competition; conditions: cell material: Lysate mix
In short: as §1

[7] = target: CAMK1D (UniProt Q8IU85); experiment: pIC50, competition of probe 3 labelling in live cells; conditions: cell material: Jurkat cells
CAMK1D, sequence (Q8IU85 whole entry, looked up): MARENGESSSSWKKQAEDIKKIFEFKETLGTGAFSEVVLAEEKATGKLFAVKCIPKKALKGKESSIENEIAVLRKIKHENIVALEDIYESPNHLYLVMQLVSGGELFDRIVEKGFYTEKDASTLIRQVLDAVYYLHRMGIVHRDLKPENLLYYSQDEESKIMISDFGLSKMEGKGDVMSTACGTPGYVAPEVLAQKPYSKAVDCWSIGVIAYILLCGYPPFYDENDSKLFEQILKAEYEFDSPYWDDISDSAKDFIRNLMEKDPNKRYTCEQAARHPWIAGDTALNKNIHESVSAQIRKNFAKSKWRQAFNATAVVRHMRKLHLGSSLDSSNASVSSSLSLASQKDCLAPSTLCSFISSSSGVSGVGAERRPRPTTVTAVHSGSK

[8] = target: CDK4 (UniProt P11802); experiment: as above; conditions: cell material: Jurkat cells
CDK4, sequence (P11802 whole entry): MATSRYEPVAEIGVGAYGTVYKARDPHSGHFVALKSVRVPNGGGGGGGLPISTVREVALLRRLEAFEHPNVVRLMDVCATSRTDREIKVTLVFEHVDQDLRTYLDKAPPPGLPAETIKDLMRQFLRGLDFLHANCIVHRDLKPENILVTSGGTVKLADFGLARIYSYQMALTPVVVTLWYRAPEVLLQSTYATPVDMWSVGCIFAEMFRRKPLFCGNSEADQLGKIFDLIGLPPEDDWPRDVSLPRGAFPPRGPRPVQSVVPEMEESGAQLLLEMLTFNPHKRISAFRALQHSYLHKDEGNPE

[9] = target: RIPK1 (UniProt Q13546); experiment: as above; conditions: cell material: Jurkat cells
[10] = target: UniProt P45984; experiment: as above; conditions: cell material: Jurkat cells
UniProt P45984, sequence (P45984 whole entry, looked up): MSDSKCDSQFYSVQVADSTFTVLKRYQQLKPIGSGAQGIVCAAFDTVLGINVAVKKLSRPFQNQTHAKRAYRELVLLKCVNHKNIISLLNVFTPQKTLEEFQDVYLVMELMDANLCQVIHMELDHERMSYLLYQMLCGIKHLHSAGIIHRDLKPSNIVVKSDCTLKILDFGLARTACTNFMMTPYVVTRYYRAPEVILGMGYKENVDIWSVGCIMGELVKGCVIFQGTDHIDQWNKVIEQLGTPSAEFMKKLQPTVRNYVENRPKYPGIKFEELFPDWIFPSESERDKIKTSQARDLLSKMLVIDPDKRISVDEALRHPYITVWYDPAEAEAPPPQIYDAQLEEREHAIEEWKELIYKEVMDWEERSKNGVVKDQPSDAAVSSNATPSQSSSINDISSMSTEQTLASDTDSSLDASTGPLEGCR

[11] = target: UniProt P49840; experiment: as above; conditions: cell material: Jurkat cells
[12] = target: STRADB (UniProt Q9C0K7); experiment: pIC50, kinobeads binding competition; conditions: cell material: Lysate mix
In short: as §1

[13] = target: TWF1 (UniProt Q12792); experiment: pIC50, kinobeads binding competition; conditions: cell material: Lysate mix
In short: as §1

[14] = target: UniProt P78368; experiment: pIC50, kinobeads binding competition; conditions: cell material: Lysate mix
In short: as §1

[15] = target: UniProt Q9P286; experiment: pIC50, kinobeads binding competition; conditions: cell material: Lysate mix
In short: as §1

[16] = target: PIK3CD (UniProt O00329); experiment: pIC50, kinobeads binding competition; conditions: cell material: Jurkat cells
In short: as §1

[17] = target: UniProt P05129; experiment: pIC50, kinobeads binding competition; conditions: cell material: Jurkat cells
In short: as §1

[18] = target: UniProt P19525; experiment: pIC50, kinobeads binding competition; conditions: cell material: Lysate mix
In short: as §1

[19] = target: UniProt P35590; experiment: pIC50, kinobeads binding competition; conditions: cell material: Lysate mix
In short: as §1

[20] = target: UniProt Q05513; experiment: pIC50, kinobeads binding competition; conditions: cell material: Lysate mix
UniProt Q05513, sequence (Q05513 whole entry): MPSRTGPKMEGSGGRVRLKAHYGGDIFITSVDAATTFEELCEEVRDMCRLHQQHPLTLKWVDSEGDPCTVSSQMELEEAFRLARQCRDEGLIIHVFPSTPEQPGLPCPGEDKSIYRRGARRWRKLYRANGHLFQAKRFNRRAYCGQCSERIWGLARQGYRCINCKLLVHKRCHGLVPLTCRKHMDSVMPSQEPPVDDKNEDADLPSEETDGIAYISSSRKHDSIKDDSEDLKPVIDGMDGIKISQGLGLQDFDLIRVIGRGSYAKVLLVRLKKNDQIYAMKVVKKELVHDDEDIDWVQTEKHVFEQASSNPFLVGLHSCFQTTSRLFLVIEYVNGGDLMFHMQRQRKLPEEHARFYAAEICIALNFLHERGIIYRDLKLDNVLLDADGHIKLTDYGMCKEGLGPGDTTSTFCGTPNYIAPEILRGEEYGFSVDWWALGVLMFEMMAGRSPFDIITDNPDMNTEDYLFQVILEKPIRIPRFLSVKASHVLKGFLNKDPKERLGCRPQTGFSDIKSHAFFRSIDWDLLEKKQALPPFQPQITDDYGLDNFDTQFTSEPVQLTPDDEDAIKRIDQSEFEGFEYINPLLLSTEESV
In short: as §1

[21] = target: CES3 (UniProt Q6UWW8); experiment: pIC50, competition of probe 3 labelling in live cells; conditions: cell material: Jurkat cells
CES3, sequence (Q6UWW8 whole entry): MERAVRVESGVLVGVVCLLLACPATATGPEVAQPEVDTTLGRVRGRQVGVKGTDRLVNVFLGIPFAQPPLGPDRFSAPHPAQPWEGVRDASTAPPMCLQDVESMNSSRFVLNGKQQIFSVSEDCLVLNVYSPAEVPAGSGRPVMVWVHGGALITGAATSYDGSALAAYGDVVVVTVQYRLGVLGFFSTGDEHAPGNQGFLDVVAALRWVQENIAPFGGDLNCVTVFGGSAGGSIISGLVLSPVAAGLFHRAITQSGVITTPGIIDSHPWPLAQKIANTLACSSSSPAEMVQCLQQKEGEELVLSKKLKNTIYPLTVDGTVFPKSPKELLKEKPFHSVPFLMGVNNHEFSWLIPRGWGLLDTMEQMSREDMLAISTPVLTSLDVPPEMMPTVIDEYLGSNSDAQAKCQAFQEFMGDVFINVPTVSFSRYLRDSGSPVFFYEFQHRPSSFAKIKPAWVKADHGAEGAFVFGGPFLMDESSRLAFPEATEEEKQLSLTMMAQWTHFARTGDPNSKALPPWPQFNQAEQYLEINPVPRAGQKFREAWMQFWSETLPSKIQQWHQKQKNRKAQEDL

[22] = target: CLK1 (UniProt P49759); experiment: as above; conditions: cell material: Jurkat cells
[23] = target: CLK3 (UniProt P49761); experiment: as above; conditions: cell material: Jurkat cells
[24] = target: FER (UniProt P16591); experiment: as above; conditions: cell material: Jurkat cells
[25] = target: FTO (UniProt Q9C0B1); experiment: as above; conditions: cell material: Jurkat cells
FTO, sequence (Q9C0B1 whole entry, looked up): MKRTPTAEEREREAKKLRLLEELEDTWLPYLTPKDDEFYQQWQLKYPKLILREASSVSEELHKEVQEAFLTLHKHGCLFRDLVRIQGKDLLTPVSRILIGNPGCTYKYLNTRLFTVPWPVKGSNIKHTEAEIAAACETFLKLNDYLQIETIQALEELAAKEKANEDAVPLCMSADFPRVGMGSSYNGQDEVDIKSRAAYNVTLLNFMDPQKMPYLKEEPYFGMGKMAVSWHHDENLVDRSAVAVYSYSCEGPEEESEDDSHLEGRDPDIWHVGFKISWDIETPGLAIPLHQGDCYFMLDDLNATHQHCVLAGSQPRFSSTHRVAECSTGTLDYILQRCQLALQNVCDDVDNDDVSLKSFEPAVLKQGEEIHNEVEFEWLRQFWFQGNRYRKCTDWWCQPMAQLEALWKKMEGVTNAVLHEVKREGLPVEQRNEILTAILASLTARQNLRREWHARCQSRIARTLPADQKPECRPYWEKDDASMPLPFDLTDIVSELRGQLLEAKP

[26] = target: LYPLA1 (UniProt O75608); experiment: as above; conditions: cell material: Jurkat cells
[27] = target: MAST3 (UniProt O60307); experiment: as above; conditions: cell material: Jurkat cells
[28] = target: RABGGTB (UniProt P53611); experiment: as above; conditions: cell material: Jurkat cells
[29] = target: SRC (UniProt P12931); experiment: as above; conditions: cell material: Jurkat cells
[30] = target: T1, UniProt Q13043; experiment: as above; conditions: cell material: Jurkat cells
T1 sequence (whole entry): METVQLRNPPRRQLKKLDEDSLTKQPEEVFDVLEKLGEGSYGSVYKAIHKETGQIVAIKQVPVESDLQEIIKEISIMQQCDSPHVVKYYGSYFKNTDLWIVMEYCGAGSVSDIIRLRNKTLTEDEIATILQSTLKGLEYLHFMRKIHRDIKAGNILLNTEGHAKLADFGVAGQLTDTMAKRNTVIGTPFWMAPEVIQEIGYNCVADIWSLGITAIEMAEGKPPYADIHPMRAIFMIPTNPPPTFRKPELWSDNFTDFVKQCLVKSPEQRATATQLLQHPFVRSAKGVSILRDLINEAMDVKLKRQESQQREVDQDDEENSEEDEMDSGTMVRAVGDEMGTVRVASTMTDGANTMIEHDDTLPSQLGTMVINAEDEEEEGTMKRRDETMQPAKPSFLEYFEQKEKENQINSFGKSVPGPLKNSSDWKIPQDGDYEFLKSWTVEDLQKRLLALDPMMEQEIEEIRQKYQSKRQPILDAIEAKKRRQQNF

[31] = target: T2, UniProt Q15831; experiment: as above; conditions: cell material: Jurkat cells
T2 sequence (whole entry): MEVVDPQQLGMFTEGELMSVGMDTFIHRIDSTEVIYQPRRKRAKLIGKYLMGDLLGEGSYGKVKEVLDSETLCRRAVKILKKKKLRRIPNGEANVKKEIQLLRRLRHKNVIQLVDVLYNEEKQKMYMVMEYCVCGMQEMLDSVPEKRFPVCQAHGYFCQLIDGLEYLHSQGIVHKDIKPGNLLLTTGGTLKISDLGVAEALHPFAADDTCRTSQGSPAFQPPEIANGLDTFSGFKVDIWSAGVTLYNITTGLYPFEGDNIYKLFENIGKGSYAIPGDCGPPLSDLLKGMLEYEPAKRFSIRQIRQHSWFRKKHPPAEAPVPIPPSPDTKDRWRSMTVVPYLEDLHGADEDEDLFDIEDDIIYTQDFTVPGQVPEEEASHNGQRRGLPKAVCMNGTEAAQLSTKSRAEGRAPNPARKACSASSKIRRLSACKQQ

[32] = target: UniProt Q8NEB9; experiment: as above; conditions: cell material: Jurkat cells

C#CCNC(=O)c1cc(Nc2cc(C3CC3)[nH]n2)nc(N2CCN(Cc3ccc(S(=O)(=O)F)cc3)CC2)n1
pIC50 [1]: < 4.52
pIC50 [2]: 5.49
pIC50 [3]: 4.7
pIC50 [4]: 5.32
pIC50 [5]: < 4.52
pIC50 [6]: < 4.52

CC#CC(=O)Nc1ccc2ncnc(Nc3cccc(Br)c3)c2c1 [EKI-785]
pIC50 [7]: < 4.52
pIC50 [8]: < 4.52
pIC50 [9]: < 4.52
pIC50 [10]: 4.6
pIC50 [11]: < 4.52

Cc1cc(Nc2cc(C(=O)NCCNC(=O)OC3CC/C=C/CCC3)nc(N3CCN(Cc4ccc(S(=O)(=O)F)cc4)CC3)n2)n[nH]1 (configuration not stated)
pIC50 [12]: < 4.52
pIC50 [13]: < 4.52
pIC50 [14]: < 4.52
pIC50 [15]: < 4.52

O=C(NCCNC(=O)c1cc(Nc2cc(C3CC3)[nH]n2)nc(N2CCN(Cc3ccc(S(=O)(=O)F)cc3)CC2)n1)OC1CC/C=C/CCC1 (configuration not stated)
pIC50 [16]: < 4.52
pIC50 [17]: 4.77

CCNC(=O)c1cc(Nc2cc(C)[nH]n2)nc(N2CCN(Cc3ccc(S(=O)(=O)F)cc3)CC2)n1
pIC50 [18]: < 4.52
pIC50 [19]: < 4.52
pIC50 [20]: < 4.52

CCc1cnn2c(NCc3ccc[n+]([O-])c3)cc(N3CCCC[C@H]3CCO)nc12 [dinaciclib]
pIC50 [21]: < 4.52
pIC50 [22]: < 4.52
pIC50 [23]: < 4.52
pIC50 [24]: < 4.52
pIC50 [25]: < 4.52
pIC50 [26]: < 4.52
pIC50 [27]: < 4.52
pIC50 [28]: < 4.52
pIC50 [29]: < 4.52
pIC50 [30]: < 4.52
pIC50 [31]: 5.24 ± 0.12
pIC50 [32]: < 4.52
